The values that follow come from publication PMC3306375, “A Unique Modification of the Eukaryotic Initiation Factor 5A Shows the Presence of the Complete Hypusine Pathway in Leishmania donovani” (PLoS ONE, 2012).

Molecules are shown by their SMILES.

In general, inhibition refers to the percentage by which the read-out fell short of the control.

Assay [1] concerns the target T1, hDOHH (recombinant human deoxyhypusine hydroxylase) (Homo sapiens, UniProt Q9BU89).
T1 construct: gene DOHH; hDOHH-pGEX-4T-3, E. coli BL21, GST tag removed with thrombin
T1 sequence (Q9BU89 1-302): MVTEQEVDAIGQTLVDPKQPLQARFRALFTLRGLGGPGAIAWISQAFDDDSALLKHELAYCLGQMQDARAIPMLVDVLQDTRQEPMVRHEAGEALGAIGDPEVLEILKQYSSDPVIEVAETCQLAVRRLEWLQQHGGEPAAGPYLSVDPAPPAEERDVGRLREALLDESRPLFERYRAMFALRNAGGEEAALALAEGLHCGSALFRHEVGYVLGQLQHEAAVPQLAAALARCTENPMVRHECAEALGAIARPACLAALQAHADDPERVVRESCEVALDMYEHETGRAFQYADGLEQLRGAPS
The assay is described as follows: [3H]hypusine release assay (periodate oxidation). It is filed as biochemical.

Assay [2] deals with T2, LdDOHH (recombinant L. donovani deoxyhypusine hydroxylase) (Leishmania donovani, UniProt D9IFD5).
T2 construct: gene DOHH; full length, 326 aa (981 bp ORF, ~36 kDa), pET30a EcoRI-HindIII, 6xHis tag printed as C-terminal (~6 kDa, kept), ~42 kDa, E. coli BL21(DE3), Ni-NTA
T2 sequence (D9IFD5 1-326): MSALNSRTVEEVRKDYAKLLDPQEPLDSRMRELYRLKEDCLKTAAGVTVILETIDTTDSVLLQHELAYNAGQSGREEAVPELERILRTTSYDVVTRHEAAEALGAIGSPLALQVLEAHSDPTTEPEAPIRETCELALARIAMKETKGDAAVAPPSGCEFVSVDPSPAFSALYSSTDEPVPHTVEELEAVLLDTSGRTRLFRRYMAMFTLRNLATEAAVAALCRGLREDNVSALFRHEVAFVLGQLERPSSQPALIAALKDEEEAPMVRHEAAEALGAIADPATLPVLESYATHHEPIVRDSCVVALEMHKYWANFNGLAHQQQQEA
Kind of assay: [3H]hypusine release assay (periodate oxidation), Hill fit. In kind it is biochemical. Particulars: read-out: concentration that inhibited 50% of activity.

With `Cc1cc(C2CCCCC2)n(O)c(=O)c1` [ciclopirox olamine], in assay [1], the inhibition at 15 µM is approximately 32%. Also, the IC50 in assay [2] came out at 13.6 µM.
For `N[C@@H](Cn1ccc(=O)c(O)c1)C(=O)O` [mimosine] the same measures were approximately 22% and 13 µM.
